Assays:
late watergrass = assay: Test Example 1: herbicidal activity, application before weed generation under submerged conditions (Table 16, symbol A); assay type: in vivo, late watergrass (Echinochloa oryzicola); details: 320 g/ha applied herbicide
Summary of the method: (§1)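 Emulsion formulation, water-diluted to set dose, was put onto the flooded surface (4 cm depth, alluvial soil) the same day weeds were sown and 2.5-leaf rice transplanted. After 3 weeks at 25-30 °C under glass, each species was rated 0 (≤5% kill) to 5 (≥90% kill).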

oval-leafed pondweed [1] = assay: Test Example 1: herbicidal activity, application before weed generation under submerged conditions (Table 16, symbol C); assay type: in vivo, oval-leafed pondweed (Monochoria vaginalis); details: 320 g/ha applied herbicide
Summary of the method: as §1

Japanese bulrush = assay: Test Example 2: herbicidal activity, application during weed generation under submerged conditions (Table 17, symbol B); assay type: in vivo, Japanese bulrush (Schoenoplectus juncoides); details: AAH 320 g/ha; application during weed generation, submerged conditions
Summary of the method: (§2)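 Effect on each weed is rated three weeks post-treatment, using the same scoring criteria as the preceding test. Plants grow from mixed-sown seed in flooded alluvial soil (4 cm water) at 25° C. to 30° C., and are treated at one to two leaves with diluted emulsion dropped onto the water.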

oval-leafed pondweed [2] = assay: Test Example 2: herbicidal activity, application during weed generation under submerged conditions (Table 17, symbol C); assay type: in vivo, oval-leafed pondweed (Monochoria vaginalis); details: AAH 320 g/ha; application during weed generation, submerged conditions
Summary of the method: as §2

rice flat sedge = assay: Test Example 3: herbicidal effect by foliage application, Wagner pot (Table 18, symbol E); assay type: in vivo, rice flat sedge (Cyperus iria); details: amount of applied herbicide 320 g/ha
Summary of the method: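 Plants were sown in alluvial soil held under 0.1–0.5 cm standing water and grown 14 days in a greenhouse at 25–30 °C. An emulsifiable formulation, water-diluted to the set dose, was then sprayed onto the foliage, and effects were scored three weeks later using previously defined criteria.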

wild oat = assay: Test Example 4: herbicidal effect by soil treatment (Table 19, symbol I); assay type: in vivo, wild oat (Avena fatua); details: amount of applied herbicide 320 g/ha
Summary of the method: (§3)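 Seeds were sown in sterilized diluvial soil and covered with about 1.5 cm of soil. An emulsion formulation diluted with water to a predetermined herbicide amount was sprayed evenly onto the soil surface. Plants grew in a greenhouse at 25° C. to 30° C., and the effect was scored three weeks after application using criteria from an earlier test.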

Italian ryegrass = assay: Test Example 4: herbicidal effect by soil treatment (Table 19, symbol K); assay type: in vivo, Italian ryegrass (Lolium multiflorum); details: amount of applied herbicide 320 g/ha
Summary of the method: as §3

windgrass = assay: Test Example 4: herbicidal effect by soil treatment (Table 19, symbol L); assay type: in vivo, windgrass (Apera spica-venti); details: amount of applied herbicide 320 g/ha
Summary of the method: as §3

persian speedwell [3] = assay: Test Example 4: herbicidal effect by soil treatment (Table 19, symbol R); assay type: in vivo, Persian speedwell (Veronica persica); details: amount of applied herbicide 320 g/ha
Summary of the method: as §3

southern crabgrass = assay: Test Example 5: herbicidal effect by foliage application, plastic box (Table 20, symbol F); assay type: in vivo, southern crabgrass (Digitaria ciliaris); details: foliage application, AAH 320 g/ha, evaluated three weeks after application
Summary of the method: (§4)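 Plants sown in sterilized diluvial soil and grown 14 days in a greenhouse at 25° C to 30° C, then sprayed on the foliage with the compound's emulsion diluted in water to a predetermined herbicide amount. Injury to weeds and crops scored three weeks after application on a visual rating scale.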

green foxtail = assay: Test Example 5: herbicidal effect by foliage application, plastic box (Table 20, symbol G); assay type: in vivo, green foxtail (Setaria viridis); details: foliage application, AAH 320 g/ha, evaluated three weeks after application
Summary of the method: as §4

barnyard grass = assay: Test Example 5: herbicidal effect by foliage application, plastic box (Table 20, symbol H); assay type: in vivo, barnyard grass (Echinochloa crus-galli); details: foliage application, AAH 320 g/ha, evaluated three weeks after application
Summary of the method: as §4

velvetleaf = assay: Test Example 5: herbicidal effect by foliage application, plastic box (Table 20, symbol M); assay type: in vivo, velvetleaf (Abutilon theophrasti); details: foliage application, AAH 320 g/ha, evaluated three weeks after application
Summary of the method: as §4

redroot pigweed = assay: Test Example 5: herbicidal effect by foliage application, plastic box (Table 20, symbol N); assay type: in vivo, redroot pigweed (Amaranthus retroflexus); details: foliage application, AAH 320 g/ha, evaluated three weeks after application
Summary of the method: as §4

chickweed = assay: Test Example 5: herbicidal effect by foliage application, plastic box (Table 20, symbol P); assay type: in vivo, common chickweed (Stellaria media); details: foliage application, AAH 320 g/ha, evaluated three weeks after application
Summary of the method: as §4

persian speedwell [4] = assay: Test Example 5: herbicidal effect by foliage application, plastic box (Table 20, symbol R); assay type: in vivo, Persian speedwell (Veronica persica); details: foliage application, AAH 320 g/ha, evaluated three weeks after application
Summary of the method: as §4

SMILES	Herbicidal effect on A: late watergrass (grade 0-5) (late watergrass)	Herbicidal effect on C: oval-leafed pondweed (grade 0-5) (oval-leafed pondweed [1])	herbicidal effect rating, B: Japanese bulrush (Japanese bulrush)	herbicidal effect rating, C: oval-leafed pondweed (oval-leafed pondweed [2])	herbicidal effect on E: rice flat sedge (rice flat sedge)	herbicidal effect on I: wild oat (wild oat)	herbicidal effect on K: Italian ryegrass (Italian ryegrass)	herbicidal effect on L: windgrass (windgrass)	herbicidal effect on R: persian speedwell (persian speedwell [3])	F: southern crabgrass, herbicidal effect (criteria 0-5) (southern crabgrass)	G: green foxtail, herbicidal effect (criteria 0-5) (green foxtail)	H: barnyard grass, herbicidal effect (criteria 0-5) (barnyard grass)	M: velvetleaf, herbicidal effect (criteria 0-5) (velvetleaf)	N: redroot pigweed, herbicidal effect (criteria 0-5) (redroot pigweed)	P: chickweed, herbicidal effect (criteria 0-5) (chickweed)	R: persian speedwell, herbicidal effect (criteria 0-5) (persian speedwell [4])
COCCSCc1ccc(-c2sc3ccc(F)cc3c2-c2c(O)c(C)nn(C)c2=O)cc1 [2-327]	3 (Herbicidal rate of 40% or more and less than 70%)	3 (Herbicidal rate of 40% or more and less than 70%)	2 (Herbicidal rate of 20% or more and less than 40%)	0 (Herbicidal rate of 5% or less (almost no effect))	4 (Herbicidal rate of 70% or more and less than 90%)	0 (Herbicidal rate of 5% or less (almost no effect))	4 (Herbicidal rate of 70% or more and less than 90%)	0 (Herbicidal rate of 5% or less (almost no effect))	5 (Herbicidal rate of 90% or more (almost completely withered))	4 (Herbicidal rate of 70% or more and less than 90%)	5 (Herbicidal rate of 90% or more (almost completely withered))	5 (Herbicidal rate of 90% or more (almost completely withered))	5 (Herbicidal rate of 90% or more (almost completely withered))	5 (Herbicidal rate of 90% or more (almost completely withered))	5 (Herbicidal rate of 90% or more (almost completely withered))	5 (Herbicidal rate of 90% or more (almost completely withered))
Cc1nn(C)c(=O)c(-c2c(-c3ccc(CSCC(F)(F)F)cc3)sc3ccc(F)cc23)c1O [2-331]	3 (Herbicidal rate of 40% or more and less than 70%)	0 (Herbicidal rate of 5% or less (almost no effect))	0 (Herbicidal rate of 5% or less (almost no effect))	0 (Herbicidal rate of 5% or less (almost no effect))	4 (Herbicidal rate of 70% or more and less than 90%)	0 (Herbicidal rate of 5% or less (almost no effect))	5 (Herbicidal rate of 90% or more (almost completely withered))	0 (Herbicidal rate of 5% or less (almost no effect))	4 (Herbicidal rate of 70% or more and less than 90%)	5 (Herbicidal rate of 90% or more (almost completely withered))	5 (Herbicidal rate of 90% or more (almost completely withered))	5 (Herbicidal rate of 90% or more (almost completely withered))	5 (Herbicidal rate of 90% or more (almost completely withered))	5 (Herbicidal rate of 90% or more (almost completely withered))	5 (Herbicidal rate of 90% or more (almost completely withered))	5 (Herbicidal rate of 90% or more (almost completely withered))
Cc1nn(C)c(=O)c(-c2c(-c3ccc(C#N)cc3)sc3ccc(F)cc23)c1O [2-340]	5 (Herbicidal rate of 90% or more (almost completely withered))	4 (Herbicidal rate of 70% or more and less than 90%)	4 (Herbicidal rate of 70% or more and less than 90%)	3 (Herbicidal rate of 40% or more and less than 70%)	5 (Herbicidal rate of 90% or more (almost completely withered))	3 (Herbicidal rate of 40% or more and less than 70%)	5 (Herbicidal rate of 90% or more (almost completely withered))	4 (Herbicidal rate of 70% or more and less than 90%)	5 (Herbicidal rate of 90% or more (almost completely withered))	5 (Herbicidal rate of 90% or more (almost completely withered))	5 (Herbicidal rate of 90% or more (almost completely withered))	5 (Herbicidal rate of 90% or more (almost completely withered))	5 (Herbicidal rate of 90% or more (almost completely withered))	5 (Herbicidal rate of 90% or more (almost completely withered))	5 (Herbicidal rate of 90% or more (almost completely withered))	5 (Herbicidal rate of 90% or more (almost completely withered))
CCCC(=O)Oc1c(C)nn(C)c(=O)c1-c1c(-c2ccc(F)c(F)c2)sc2ccc(F)cc12 [2-345]	4 (Herbicidal rate of 70% or more and less than 90%)	3 (Herbicidal rate of 40% or more and less than 70%)	5 (Herbicidal rate of 90% or more (almost completely withered))	4 (Herbicidal rate of 70% or more and less than 90%)	5 (Herbicidal rate of 90% or more (almost completely withered))	1 (Herbicidal rate of 5% or more and less than 20%)	0 (Herbicidal rate of 5% or less (almost no effect))	0 (Herbicidal rate of 5% or less (almost no effect))	5 (Herbicidal rate of 90% or more (almost completely withered))	4 (Herbicidal rate of 70% or more and less than 90%)	5 (Herbicidal rate of 90% or more (almost completely withered))	5 (Herbicidal rate of 90% or more (almost completely withered))	5 (Herbicidal rate of 90% or more (almost completely withered))	5 (Herbicidal rate of 90% or more (almost completely withered))	5 (Herbicidal rate of 90% or more (almost completely withered))	5 (Herbicidal rate of 90% or more (almost completely withered))
Cc1nn(C)c(=O)c(-c2c(-c3ccc(Cl)cc3F)sc3ccc(F)cc23)c1O [2-348]	2 (Herbicidal rate of 20% or more and less than 40%)	0 (Herbicidal rate of 5% or less (almost no effect))	2 (Herbicidal rate of 20% or more and less than 40%)	0 (Herbicidal rate of 5% or less (almost no effect))	5 (Herbicidal rate of 90% or more (almost completely withered))	0 (Herbicidal rate of 5% or less (almost no effect))	2 (Herbicidal rate of 20% or more and less than 40%)	0 (Herbicidal rate of 5% or less (almost no effect))	4 (Herbicidal rate of 70% or more and less than 90%)	5 (Herbicidal rate of 90% or more (almost completely withered))	5 (Herbicidal rate of 90% or more (almost completely withered))	5 (Herbicidal rate of 90% or more (almost completely withered))	5 (Herbicidal rate of 90% or more (almost completely withered))	5 (Herbicidal rate of 90% or more (almost completely withered))	5 (Herbicidal rate of 90% or more (almost completely withered))	5 (Herbicidal rate of 90% or more (almost completely withered))

Reference: patent US20230085307A1, “PYRIDAZINONE COMPOUND AND HERBICIDE” (NISSAN CHEMICAL CORPORATION, priority 2019, published 2023)
